The values that follow come from patent publication US20260258025A1, “INHIBITORS OF TDP-43 AND TAU AGGREGATION” (Aquinnah Pharmaceuticals, inc., priority 2023, published 2026).

The test has as its system TDP-43 aggregation. Put plainly: TDP-43 aggregation assay in SY5Y TDP-43WT cells (high content imaging). Type of test: cell-based. As to conditions: Homo sapiens, tetracycline induction 24 hrs, 1 hour compound pre-treatment, sodium arsenite 23 hrs, 8-point dose curve, percentage of cells with TDP-43 aggregates, read-out: IC50, Inhibition of TDP-43 Aggregation. The method, then:
Exemplary compounds disclosed herein were evaluated for efficacy in inhibiting TDP-43 inclusions cellular imaging-based assays.
The cellular model was in human neuroblastoma SH SYSY cells (ATCC, cat #: CRL-2266). The parent cell line was first engineered to stably express a tetracycline repressor protein (designated as TREx-SY5Y cells, customer cell line development by ThermoFisher). Wild-type human TDP-43 with a C-terminus eGFP tag was synthesized and cloned into pcDNA5/TO expression vector (ThermoFisher). The plasmid was transfected into TREx-SY5Y cells using Lipofectamine 2000 and hygromycin resistant colonies were selected. Expression of TDP-43WT::eGFP was examined under fluorescent microscopy and Western blot upon tetracycline induction. The clone that was used for TDP-43 aggregation assay is referred to as SY5Y TDP-43WT cells hereafter.
Compound inhibition of TDP-43 aggregation was tested in an 8-point dose curve in 96-well format. Briefly, TDP-43WT::eGFP expression was induced with […] for 24 hrs (SY5Y TDP-43WT cells). The cells were then pre-treated for 1 hour with exemplary compounds before adding sodium arsenite to a final concentration of […] and incubated for another 23 hrs. At the end of the treatment the cell monolayers were washed in PBS and fixed in 4% paraformaldehyde (PFA), diluted from 16% stock (Electron Microscopy Sciences cat: #15710-S). The inhibitory effect on TDP-43 aggregation was measured using CellInsight CX7 high content imager (ThermoFisher). The percentage of cells with TDP-43 aggregates was calculated based on the total number of cells identified by DAPI staining. An 8-point dose response curve was generated, and the IC50 for each compound tested was determined (Table 3).
In Table 3 below, A indicates an IC50 (nM)<500 nM, B indicates an IC50 (nM) 500 nM to <1000 nM, C indicates an IC50 (nM) 1000 nM to <2000 nM, D indicates an IC50 (nM) 2000 nM to <6000 nM, and E indicates an IC50 (nM) 6000 nM to ≤10000 nM.
As to `N[C@H]1CCN(C(=O)c2sc(-c3ccc(C4CCN(C5CCCC5)CC4)c(F)c3)cc2Cl)C1` [Compound 270, (S)-(3-aminopyrrolidin-1-yl)(3-chloro-5-(4-(1-cyclopentylpiperidin-4-yl)-3-fluorophenyl)thiophen-2-yl)methanone], the IC50 is less than 500 nM. On to `N[C@H]1CCN(C(=O)c2sc(-c3ccc(C4CCN(C5CCOCC5)CC4)cc3)cc2Br)C1` [Compound 255, (S)-(3-aminopyrrolidin-1-yl)(3-bromo-5-(4-(1-(tetrahydro-2H-pyran-4-yl)piperidin-4-yl)phenyl)thiophen-2-yl)methanone], for which the IC50 was less than 500 nM. Regarding `Cc1cc(-c2ccc(C3CCN(C4CCOCC4)CC3)c(Cl)c2)sc1C(=O)N1CC[C@H](N)C1` [Compound 287, (S)-(3-aminopyrrolidin-1-yl)(5-(3-chloro-4-(1-(tetrahydro-2H-pyran-4-yl)piperidin-4-yl)phenyl)-3-methylthiophen-2-yl)methanone], the IC50 is less than 500 nM.

`N[C@H]1CCN(C(=O)c2sc(-c3ccc(C4CCN(C5CCOCC5)CC4)c(Cl)c3)cc2Cl)C1` [Compound 273, (S)-(3-aminopyrrolidin-1-yl)(3-chloro-5-(3-chloro-4-(1-(tetrahydro-2H-pyran-4-yl)piperidin-4-yl)phenyl)thiophen-2-yl)methanone]: the IC50 is less than 500 nM.

As for `CCc1ccc(-c2cc(C)c(C(=O)N3CC[C@H](N)C3)s2)cc1` [Compound 228], the IC50 was in the range of 500 to 1000 nM.

Take `Cc1cc(-c2ccc(C3COC3)cc2)sc1C(=O)N1CC[C@H](N)C1` [Compound 235]: the IC50 was less than 500 nM. Consider `COCCCN1CCC(c2ccc(-c3cc(Cl)c(C(=O)N4CC[C@H](N)C4)s3)cc2F)CC1` [Compound 268, (S)-(3-aminopyrrolidin-1-yl)(3-chloro-5-(3-fluoro-4-(1-(3-methoxypropyl)piperidin-4-yl)phenyl)thiophen-2-yl)methanone], for which the IC50 is less than 500 nM. The result for `COCCN1CCC(c2ccc(-c3cc(Cl)c(C(=O)N4CC[C@H](N)C4)s3)cc2)CC1` [Compound 258, (S)-(3-aminopyrrolidin-1-yl)(3-chloro-5-(4-(1-(2-methoxyethyl)piperidin-4-yl)phenyl)thiophen-2-yl)methanone] reads less than 500 nM; that for `Cc1cc(-c2ccc(C3CCN(C4CNC4)CC3)cc2)sc1C(=O)N1CC[C@H](N)C1` [Compound 174, (S)-(3-aminopyrrolidin-1-yl)(5-(4-(1-(azetidin-3-yl)piperidin-4-yl)phenyl)-3-methylthiophen-2-yl)methanone], 1000 to 2000 nM; that for `N[C@H]1CCN(C(=O)c2sc(-c3ccc(C4CCN(C5COC5)CC4)c(F)c3)cc2Cl)C1` [Compound 265, (S)-(3-aminopyrrolidin-1-yl)(3-chloro-5-(3-fluoro-4-(1-(oxetan-3-yl)piperidin-4-yl)phenyl)thiophen-2-yl)methanone], less than 500 nM. Regarding `Cc1cnc(-c2cc(C)c(C(=O)N3CC[C@H](N)C3)s2)cn1` [Compound 223], the IC50 lay within 1000 to 2000 nM.

For the compound `Cc1cc(-c2ccc(CN)cc2)sc1C(=O)N1CC[C@H](N)C1` [Compound 219], the IC50 is less than 500 nM. The result for `Cc1cc(-c2ccc3c(c2)CCCC3)sc1C(=O)N1CC[C@H](N)C1` [Compound 247] reads 6000 to 10000 nM; that for `Cc1cc(-c2ccc(C3CCC3)cc2)sc1C(=O)N1CC[C@H](N)C1` [Compound 232], 500 to 1000 nM; that for `Cc1cc(-c2ccc3c(c2)CN(C)CC3)sc1C(=O)N1CC[C@H](N)C1` [Compound 189], less than 500 nM.

As for `Cc1cc(-c2ccc(C(C)C)cc2)sc1C(=O)N1CC[C@H](N)C1` [Compound 230], the IC50 lay within 2000 to 6000 nM. `COC(C)CN1CCC(c2ccc(-c3cc(C)c(C(=O)N4CC[C@H](N)C4)s3)cc2F)CC1` (stereo partly drawn) [Compound 251, ((S)-3-aminopyrrolidin-1-yl)(5-(3-fluoro-4-(1-(2-methoxypropyl)piperidin-4-yl)phenyl)-3-methylthiophen-2-yl)methanone]: the IC50 was less than 500 nM. The result for `CCN1CCC(c2ccc(-c3cc(C)c(C(=O)N4CC[C@H](N)C4)s3)cc2F)CC1` [Compound 281, (S)-(3-aminopyrrolidin-1-yl)(5-(4-(1-ethylpiperidin-4-yl)-3-fluorophenyl)-3-methylthiophen-2-yl)methanone] reads less than 500 nM; that for `Cc1cc(-c2ccc(Cl)c(Cl)c2)sc1C(=O)N1CC[C@H](N)C1` [Compound 244], 2000 to 6000 nM. The result for `CN1CCC(c2ccc(-c3cc(Cl)c(C(=O)N4CC[C@H](N)C4)s3)cc2F)CC1` [Compound 280, (S)-(3-aminopyrrolidin-1-yl)(3-chloro-5-(3-fluoro-4-(1-methylpiperidin-4-yl)phenyl)thiophen-2-yl)methanone] reads less than 500 nM; that for `COCCN1CCC(c2ccc(-c3cc(C)c(C(=O)N4CC[C@H](N)C4)s3)cc2F)CC1` [Compound 276, (S)-(3-aminopyrrolidin-1-yl)(5-(3-fluoro-4-(1-(2-methoxyethyl)piperidin-4-yl)phenyl)-3-methylthiophen-2-yl)methanone], less than 500 nM. As to `Cc1cc(-c2ccc3c(c2)CCC3N(C)C)sc1C(=O)N1CC[C@H](N)C1` (stereo partly drawn) [Compound 188, ((S)-3-aminopyrrolidin-1-yl)(5-(1-(dimethylamino)-2,3-dihydro-1H-inden-5-yl)-3-methylthiophen-2-yl)methanone], the IC50 is less than 500 nM.

In the case of `N[C@H]1CCN(C(=O)c2sc(-c3ccc(C4CCN(C5CCOCC5)CC4)c(Cl)c3)cc2OC(F)(F)F)C1` [Compound 252, (S)-(3-aminopyrrolidin-1-yl)(5-(3-chloro-4-(1-(tetrahydro-2H-pyran-4-yl)piperidin-4-yl)phenyl)-3-(trifluoromethoxy)thiophen-2-yl)methanone], the IC50 lay in the range of 6000 to 10000 nM. On to `Cc1cc(-c2ccc(C3CCN(C4CCOCC4)CC3)c(OC(F)(F)F)c2)sc1C(=O)N1CC[C@H](N)C1` [Compound 261, (S)-(3-aminopyrrolidin-1-yl)(3-methyl-5-(4-(1-(tetrahydro-2H-pyran-4-yl)piperidin-4-yl)-3-(trifluoromethoxy)phenyl)thiophen-2-yl)methanone], for which the IC50 lay within 1000 to 2000 nM. For `COCCN1CCC(c2ccc(-c3cc(Cl)c(C(=O)N4CC[C@H](N)C4)s3)cc2Cl)CC1` [Compound 253, (S)-(3-aminopyrrolidin-1-yl)(3-chloro-5-(3-chloro-4-(1-(2-methoxyethyl)piperidin-4-yl)phenyl)thiophen-2-yl)methanone], the IC50 was less than 500 nM.

For the compound `COc1cc(C2CCN(C3CCOCC3)CC2)ccc1-c1cc(C)c(C(=O)N2CC[C@H](N)C2)s1` [Compound 259, (S)-(3-aminopyrrolidin-1-yl)(5-(2-methoxy-4-(1-(tetrahydro-2H-pyran-4-yl)piperidin-4-yl)phenyl)-3-methylthiophen-2-yl)methanone], the IC50 fell in the range of 2000 to 6000 nM. With `Cc1cc(-c2ccc(N3CCN(C)CC3)cc2)sc1C(=O)N1CC[C@H](N)C1` [Compound 185, (S)-(3-aminopyrrolidin-1-yl)(3-methyl-5-(4-(4-methylpiperazin-1-yl)phenyl)thiophen-2-yl)methanone], the IC50 was less than 500 nM. As for `Cc1cc(-c2ccc3c(c2)CCN(C)C3)sc1C(=O)N1CC[C@H](N)C1` [Compound 191, (S)-(3-aminopyrrolidin-1-yl)(3-methyl-5-(2-methyl-1,2,3,4-tetrahydroisoquinolin-6-yl)thiophen-2-yl)methanone], the IC50 was less than 500 nM.

In the case of `Cc1cc(-c2ccc(C3CCCCC3)cc2)sc1C(=O)N1CC[C@H](N)C1` [Compound 238], the IC50 lay within 6000 to 10000 nM.

Turning to `Cc1cc(-c2ccc3c(c2)OCCC3)sc1C(=O)N1CC[C@H](N)C1` [Compound 194, (S)-(3-aminopyrrolidin-1-yl)(5-(chroman-7-yl)-3-methylthiophen-2-yl)methanone], the IC50 was 500 to 1000 nM.

With `Cc1cc(-c2ccc3ccccc3c2)sc1C(=O)N1CC[C@H](N)C1` [Compound 246], the IC50 was 6000 to 10000 nM. With `Cc1cc(-c2ccc(C3CCN(C4CCOCC4)CC3)c(F)c2)sc1C(=O)N1CC[C@H](N)C1` [Compound 296, (S)-(3-aminopyrrolidin-1-yl)(5-(3-fluoro-4-(1-(tetrahydro-2H-pyran-4-yl)piperidin-4-yl)phenyl)-3-methylthiophen-2-yl)methanone], the half-maximal inhibitory concentration (IC50) is less than 500 nM. `CNCc1ccc(-c2cc(C)c(C(=O)N3CC[C@H](N)C3)s2)cc1` [Compound 218]: the IC50 was less than 500 nM.

For `CCc1cc(-c2ccc(C3CCN(C4CCOCC4)CC3)c(F)c2)sc1C(=O)N1CC[C@H](N)C1` [Compound 291, (S)-(3-aminopyrrolidin-1-yl)(3-ethyl-5-(3-fluoro-4-(1-(tetrahydro-2H-pyran-4-yl)piperidin-4-yl)phenyl)thiophen-2-yl)methanone], the IC50 is less than 500 nM.

What is called IC50 is the concentration at which inhibition is half-maximal.
